Experimental data reported in PubChem BioAssay (NCI).
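Step 1: Grow cells in 96-well plates. Step 2: Expose to compound for 48 hours at 5 concentrations. Step 3: Interpolate endpoints linearly; if unreached, use highest concentration. The concentration for full growth arrest is given as TGI.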

Key:
Assay in all cases: growth of human tumour cells (NCI), 48 h
MALME-3M melanoma = tested on: MALME-3M melanoma
MCF7 breast = tested on: MCF7 breast
COLO 205 colon = tested on: COLO 205 colon
HL-60(TB) leukemia = tested on: HL-60(TB) leukemia
KM12 colon = tested on: KM12 colon
OVCAR-8 ovarian = tested on: OVCAR-8 ovarian
HCC-2998 colon = tested on: HCC-2998 colon
BT-549 breast = tested on: BT-549 breast
SNB-75 CNS = tested on: SNB-75 CNS
K-562 leukemia = tested on: K-562 leukemia
UACC-257 melanoma = tested on: UACC-257 melanoma
SK-OV-3 ovarian = tested on: SK-OV-3 ovarian
UO-31 renal = tested on: UO-31 renal

Row | SMILES | TGI (MALME-3M melanoma) [µM] | TGI (MCF7 breast) [µM] | TGI (COLO 205 colon) [µM] | TGI (HL-60(TB) leukemia) [µM] | TGI (KM12 colon) [µM] | TGI (OVCAR-8 ovarian) [µM] | TGI (HCC-2998 colon) [µM] | TGI (BT-549 breast) [µM] | TGI (SNB-75 CNS) [µM] | TGI (K-562 leukemia) [µM] | TGI (UACC-257 melanoma) [µM] | TGI (SK-OV-3 ovarian) [µM] | TGI (UO-31 renal) [µM]
1 | COc1ccc(/C=C/C(=O)c2ccc(OC(=O)/C=C/c3ccccc3)cc2)cc1 | > 100 | > 100 | > 71.6 | 33.7 | 26.4 | > 83.2 | 32.8 | > 58.3 | > 82.2 | > 100 | > 100 | > 100 | > 91.5
2 | O=C1C=CC2(C=C1)C[C@H](NC(=O)OCc1ccccc1)C(=O)O2 | 26.6 | 25.1 | 18.3 | 7.58 | 35.7 | 31.4 | 40.8 | 32.7 | 61.4 | > 32.5 | 33.2 | > 92.3 | 39.9
3 | COC1CC(O[C@H]2CC[C@@]3(C)[C@@H](CC[C@]4(O)[C@@H]3CC[C@]3(C)[C@@H](C(C)=O)[C@H](OC(=O)CC(C)C)[C@@H](OC(=O)c5ccccc5)[C@@]34O)C2)OC(C)C1OC1CC(OC)C(OC2OC(C)C(O)C(OC)C2O)C(C)O1 (stereo not given in full) | > 25 | > 25 | 12.4 | > 25 | > 25 | > 25 | > 25 | > 25 | > 25 | > 25 | > 25 | > 25 | > 25
4 | O=C1NC(=S)NC(=O)C1=C/C=C/c1ccc([N+](=O)[O-])cc1 | 80.8 | 34.9 | 33.6 | > 100 | > 100 | 47.6 | 35.7 | 25 | 35.2 | > 100 | 30.8 | 36 | 33.5
5 | C/C(Cc1ccc2c(c1)OCO2)=N\NC(=O)C(C)Sc1nnc(SC(C)C(=O)N/N=C(\C)Cc2ccc3c(c2)OCO3)s1 (stereo not given) | > 100 | > 100 | > 100 | > 100 | > 100 | > 100 | > 100 | > 100 | > 100 | > 100 | > 100 | > 100 | > 100
